Test results reported in patent US6168939A, “Endopeptidase produced by Lactobacillus helveticus” (priority 1995, dated 2001).
“Also recorded” adds a separate entry of the source. Numbered stars: 1 amine (or outer) side, 2 acyl side, 3 side chain; on linkers, the order of the positions; unused ones are H or OH. Ends that are not written are not given here. Peptide text beside a SMILES is read from it. * marks the point of attachment. pNA = O=[N+]([O-])c1ccc(N*)cc1; Suc = O=C(CCC(=O)[*:2])[*:1]; MeOSuc = COC(=O)CCC(=O)*

B1: α51 -Casein: casein protein substrate (probably αs1-casein) (protein, UniProt P02662 16-214, looked up)
Alpha-S1-casein: RPKHPIKHQGLPQEVLNENLLRFFVAPFPEVFGKEKVNELSKDIGSESTEDQAMEDIKQMEAESISSSEEIVPNSVEQKHIQKEDVPSERYLGYLEQLLRLKKYKVPQLEIVPNSAEERLHSMKEGIHAQQKEPMIGVNQELAYFYPELFRQFYQLDAYPSGAWYYVPLGTQYTDAPSFSDIPNPIGSENSEKTTMPLW
B2: β-Casein: casein protein substrate (protein, UniProt P02666 16-224, looked up)
Beta-casein: RELEELNVPGEIVESLSSSEESITRINKKIEKFQSEEQQQTEDELQDKIHPFAQTQSLVYPFPGPIPNSLPQNIPPLTQTPVVVPPFLQPEVMGVSKVKEAMAPKHKEMPFPKYPVEPFTESQSLTLTDVENLHLPLPLLQSWMHQPHQPLPPTVMFPPQSVLSLSQSKVLPVPQKAVPYPQRDMPIQAFLLYQEPVLGPVRGPFPIIV

Biological target: T1, endopeptidase produced by Lactobacillus helveticus (Lactobacillus helveticus, UniProt Q6UP05)
T1 construct: N-terminus […]
T1 sequence (Q6UP05 1-643): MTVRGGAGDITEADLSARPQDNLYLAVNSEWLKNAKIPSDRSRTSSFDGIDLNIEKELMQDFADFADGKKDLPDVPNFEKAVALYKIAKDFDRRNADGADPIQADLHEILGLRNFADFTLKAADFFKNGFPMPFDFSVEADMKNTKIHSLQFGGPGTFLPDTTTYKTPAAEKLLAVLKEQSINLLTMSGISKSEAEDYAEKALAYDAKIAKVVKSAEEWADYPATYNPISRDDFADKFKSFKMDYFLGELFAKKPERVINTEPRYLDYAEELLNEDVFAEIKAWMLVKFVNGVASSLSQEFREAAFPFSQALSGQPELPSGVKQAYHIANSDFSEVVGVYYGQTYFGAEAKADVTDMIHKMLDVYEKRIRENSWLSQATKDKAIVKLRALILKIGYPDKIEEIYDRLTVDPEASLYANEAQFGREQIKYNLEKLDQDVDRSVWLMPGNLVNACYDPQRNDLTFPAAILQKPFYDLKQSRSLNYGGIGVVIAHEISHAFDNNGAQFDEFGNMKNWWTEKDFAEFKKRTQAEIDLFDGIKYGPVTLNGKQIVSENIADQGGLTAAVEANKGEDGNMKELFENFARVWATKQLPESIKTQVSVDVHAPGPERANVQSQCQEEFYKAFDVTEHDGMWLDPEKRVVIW
Experiment: Influence of metal ions on endopeptidase activity
Type: biochemical
Conditions: method according to Test example 7
Protocol: (§1) The influences of enzyme inhibitors on the-activity of the endopeptidase of the present invention was determined. The purified endopeptidase (0.5 μg protein/ml) in 40 mM HEPES, pH7.0, was incubated for 30 min. at 4° C. with 0.001 to 2.0 mM enzyme inhibitors. After pre-incubating the enzyme mixture for 5 min. at 30° C., 1 mM Tyr-Gly-Gly-Phe-Met (SEQ ID NO: 2) was added to start the reaction and the mixture was incubated for 20 min. at 30° C. The reaction was stopped by 10% acetic acid.
The influences of metal ions to the activity of the endopeptidase of the present invention was determined similarly by the method according to Test example 7. The enzyme activity was inhibited by Cu^2+, Zn^2+ and Fe^2+.

Molecule | inhibition of endopeptidase activity by metal ions
[Zn+2] [Zn^2+] | inhibited
[Fe+2] [Fe^2+] | inhibited
[Cu+2] [Cu^2+] | inhibited

Biological target: T1, endopeptidase produced by Lactobacillus helveticus
Experiment: Substrate specificity: hydrolysis of substrates by the endopeptidase
Type: biochemical
Set-up: key: + represents that a substrate was hydrolyzed; - represents that a substrate was not hydrolyzed
Conditions: 2 to 5 mM substrate, 50 mM HEPES pH 7.0, 30° C., 5.0 hrs
Protocol: The substrate specificity of the endopeptidase of the present invention was determined. In 200 μl of 2 to 5 mM substrate in 50 mM HEPES buffer, pH 7.0, 10 μl of the endopeptidase solution of the present invention in 50 mM HEPES buffer, pH 7.0, at five μg/ml was added and incubated at 30° C. for 5.0 hrs. Then, the reaction mixture was applied to reversed phase chromatography and eluted using linear increase of concentration of acetonitrile in 0.1% trifluoroacetic acid from zero to 60%. The hydrolysis was determined from the decrease of the peak area of the substrate and/or the appearance of a new peak(s) at 214 nm on the chromatogram.

Molecule | Hydrolysis
Gly-Pro-Arg-Pro (GPRP) | -
Ala-Pro-pNA | -
Ala-Ala-Ala-Ala (AAAA) | +
β-Casomorphin | -
β-Casein, f108-113: β-Casein fragment 108-113, 6 amino acid residues (EMPFPK; UniProt P02666 123-128, looked up, fragment) | +
NCCCC[C@H](N)C(=O)Nc1ccc([N+](=O)[O-])cc1 [Lys-pNA] | -
CC(C)C[C@H](NC(=O)[C@@H]1CCCN1C(=O)[C@H](C)NC(=O)[C@H](C)NC(=O)CCC(=O)O)C(=O)Nc1ccc([N+](=O)[O-])cc1 [Suc-Ala-Ala-Pro-Leu-pNA] (Suc-AAPL-pNA) | -
Leu-Gly-Gly | -
Bzl-Cys-pNA | -
Met-Gly-Gly | -
Z-Phe-Ala | -
CSCC[C@H](NC(=O)[C@H](Cc1ccccc1)NC(=O)CNC(=O)CNC(=O)[C@@H](N)Cc1ccc(O)cc1)C(=O)O [Met-Enkephalin] | +
Parathyroid hormone, human, f1-38: human parathyroid hormone fragment 1-38, 38 amino acid residues (SVSEIQLMHNLGKHLNSMERVEWLRKKLQDVHNFVALG; Parathyroid hormone; UniProt P01270 32-69, looked up, fragment) | -
RPPGFSPFR [Bradykinin] | +
Leu-Leu | -
Parathyroid hormone, human, f1-44: human parathyroid hormone fragment 1-44, 44 amino acid residues (SVSEIQLMHNLGKHLNSMERVEWLRKKLQDVHNFVALGAPLAPR; Parathyroid hormone; UniProt P01270 32-75, looked up, fragment) | -
Neurotensin | +
CSCC[C@H](NC(=O)[C@H](CC(C)C)NC(=O)CNC(=O)[C@H](Cc1ccccc1)NC(=O)[C@H](Cc1ccccc1)NC(=O)[C@H](CCC(N)=O)NC(=O)[C@H](CCC(N)=O)NC(=O)[C@@H]1CCCN1C(=O)[C@H](CCCCN)NC(=O)[C@@H]1CCCN1C(=O)[C@@H](N)CCCNC(=N)N)C(N)=O [Substance P] | +
Dynorphin A | +
Leu-Leu-Leu | +
O=C(O)CCC(=O)N[C@@H](Cc1ccccc1)C(=O)Nc1ccc([N+](=O)[O-])cc1 [Suc-Phe-pNA] | -

Molecule | Hydrolysis
Angiotensin (DRVYIHPFHL; Angiotensin-1; UniProt P01019 25-34, looked up) | +
Ala-Ala-Ala-Ala-Ala | +
Gly-Pro-Gly-Gly (GPGG) | -
O=C(Nc1ccc([N+](=O)[O-])cc1)[C@@H]1CCCN1 [Pro-pNA] | -
Pro-Ala | -
Ala-Ala-Ala-Ala-Ala-Ala | +
Pro-Lys-Gly-Gly (PKGG) | -
Phe-Val | -
Insulin β-chain | +
β-Casein, f203-209: β-Casein fragment 203-209, 7 amino acid residues (GPFPIIV; UniProt P02666 218-224, looked up, fragment) | +
Pro-Gly-Gly | -
Phe-Met | -
Pro-Gly-Lys-Ala-Arg (PGKAR) | -
COC(=O)CCC(=O)N[C@@H](CCCNC(=N)N)C(=O)N1CCC[C@H]1C(=O)N[C@@H](Cc1ccc(O)cc1)C(=O)Nc1ccc([N+](=O)[O-])cc1 [MeO-Suc-Arg-Pro-Tyr-pNA] (MeOSuc-Arg-Pro-Tyr-pNA) | -
κ-Casein: casein protein substrate | -
Parathyroid hormone, human, f13-34: human parathyroid hormone fragment 13-34, 22 amino acid residues (KHLNSMERVEWLRKKLQDVHNF; Parathyroid hormone; UniProt P01270 44-65, looked up, fragment) | +
Tyr-Gly-Gly | -
Parathyroid hormone, human, f1-34: human parathyroid hormone fragment 1-34, 34 amino acid residues | +
B1 | -
B2 | -

Same assay, conditions: substrate + LAP (leucine aminopeptidase); pH 7.0, 30° C., 5.0 hrs

Molecule | Hydrolysis
COC(=O)CCC(=O)N[C@@H](CCCNC(=N)N)C(=O)N1CCC[C@H]1C(=O)N[C@@H](Cc1ccc(O)cc1)C(=O)Nc1ccc([N+](=O)[O-])cc1 [MeO-Suc-Arg-Pro-Tyr-pNA] (MeOSuc-Arg-Pro-Tyr-pNA) | +

Biological target: T1, endopeptidase produced by Lactobacillus helveticus
Experiment: not given
Type: biochemical
Conditions: 0.001 to 2.0 mM inhibitor, 30 min. at 4° C.; 1 mM Tyr-Gly-Gly-Phe-Met, pH 7.0, 30° C.
Protocol: as §1
The enzyme activity was determined by reversed phase chromatography.

Molecule | inhibition of endopeptidase activity by enzyme inhibitors
O=S(=O)(F)Cc1ccccc1 [phenylmethylsulfonyl fluoride] | no inhibition
O=S(=O)(O)c1cc[c]([Hg][Cl])cc1 [p-CMBS, p-chloromercuribenzenesulfonic acid] | inhibited; also recorded: inhibition
c1cnc2c(c1)ccc1cccnc12 [1,10-phenanthroline] | inhibited; also recorded: inhibition

Same assay, conditions: pH 7

Molecule | inhibition of endopeptidase activity by enzyme inhibitors
O=C(O)CI [iodoacetic acid] | no inhibition
O=C(O)CN(CCN(CC(=O)O)CC(=O)O)CC(=O)O [EDTA, ethylenediaminetetraacetic acid] | inhibited; also recorded: inhibition
